Tests used:
Type in all cases: cell-based, mouse
[1] = test system: Sca-1−ve and Sca-1+ve sorted cells; assay: Quantification of organoid morphologies from Sca-1 sorted cells
Method: (§1) Quantification and statistical analysis of organoid morphologies from cultures grown with UNC0638 or DMSO control. *=P<0.05, two tailed independent samples T-test
(§2) UNC0638 treatment reduces the proportion of Sca-1+ve alveolar organoids and increases the proportion of small, undifferentiated organoids. (FIG. 4) 250 nM UNC0638 reduces alveolar colony formation and increase ciliated organoid formation (FIG. 5).

[2] = test system: CK1750 and SC241 cell lines; assay: Flow cytometry screen of adenocarcinoma cell lines for stem cell surface marker Sca-1 with a small molecule library
Text: The X axis crosses at the level of Sca-1 fluorescence measured in cells with the vehicle only control (DMSO). Bars up thus represent an increase in Sca-1 and Bars down represent a decrease. Each bar represents a different chemical treatment.
The CK1750 and SC241 cell lines derived from K-ras; p53fl/fl mouse adenocarcinoma tumors are highly enriched for Sca-1 and CD24. These cell lines were screened for factors that alter the expression of Sca1, CD24 or both markers, using the Stem Cell Core's Pilot Known Bioactives library, a small molecule library enriched in inhibitors of chromatin regulators (FIG. 1).

[3] = test system: BASC (Bronchioalveolar Stem Cell) cultures; assay: 3D organoid culture of BASC: organoid morphology, lineage and staining
Text: as §1
Graphs depicts quantification of organoid lineage proportions in UNC0638 and DMSO treated cultures. On the top graph bronchiolar and tracheobronichiolar organoids are counted separately. On the bottom graph these organoids are counted together. *=P<0.05, two tailed independent samples T-test
FIG. 6 depicts graphs of the quantification of PAS and Alcian Blue Stained Organoids in DMSO and UNC0638 treated Organoids.
(§3) AT2 cells are only capable of producing alveolar morphological organoids (FIG. 3).
as §2
Organoids with visible movement are observed in control cultures, but are more frequent in 250 nM UNC0638 treated cultures. […] Some organoids in UNC0638 cultures (and some rare organoids in DMSO cultures) can be seen to be visibly moving. They have currents in their lumen causing material within to move around. […] Currents are always counter clockwise, consistent with direction of cilia.
Ciliated organoids have large amounts of material that stain for PAS and Alcian Blue, like mucus produced by goblet cells in the lung upper airways. This material is likely what can be seen to revolve in the organoids with interior lumen currents. G9a/G1p inhibition increases the proportion and overall number of PAS/Alcian Blue Staining Organoids (FIG. 6). PAS stained cells resemble goblet cells that produce mucus in the upper airway. […] This is precisely the same as the lung upper airways which have a lower layer of p63+ Keratin 5+ stem cells known as basal cells.

[4] = test system: AT2 (Alveolar Type 2) cultures; assay: 3D organoid culture of AT2 cells: organoid formation; settings: AT2 cultures (FIG. 3)
Text: as §3

BASC 3D co-culture = BASC 3D co-culture resorted by FACS for Sca-1 expressing cells; settings: 3D cultures after 3 weeks growth, vs DMSO control (FIG. 2)

## COc1cc2c(NC3CCN(C(C)C)CC3)nc(C3CCCCC3)nc2cc1OCCCN1CCCC1 [UNC0638]
[1]; Sca-1+ve (FIG. 4)
  proportion of alveolar organoids: reduces
  proportion of small, undifferentiated organoids: increases
[1]; Sca-1−ve sorted cells (FIG. 4)
  organoid formation: significantly reduces
[2]; among library chemicals, vs DMSO vehicle control (FIG. 1)
  change in Sca-1 on the cell surface: largest increase in Sca-1
[2]; flow cytometry screen of adenocarcinoma cell lines
  enrichment for high Sca-1 expressing, TPC-like cells: enriches for high Sca-1 expressing, TPC-like cells
[3]; 250 nM (FIG. 5)
  alveolar colony formation: reduces
  ciliated organoid formation: increase
[3]; 250 nM, vs control cultures
  organoids with visible movement: more frequent
[3]; BASC cultures (FIG. 3)
  organoids with alveolar morphology: significantly fewer
[3]; lung stem cell cultures, beating multiciliated, goblet like and P63+ Kertatin 5+ cells
  organoids that resemble the large airways of the lung: more organoids
[3]; treated cultures
  H&E staining of Acetylated tubulin positive organoids: many of the cells are muticiliated
[3]; treated cultures vs control
  organoids that stained with Acetylated tubulin, a marker of Ciliated cells: significantly more
[3]; vs DMSO control, *=P<0.05, two tailed independent samples T-test (FIG. 4, FIG. 5)
  alveolar organoid differentiation: reduces
[3]; vs DMSO, *=P<0.05, two tailed independent samples T-test (FIG. 5)
  ciliated organoid differentiation: increases
[4]
  number of organoids: significantly fewer organoids
BASC 3D co-culture
  Sca-1 expressing cells among stem cell-derived cells: many more Sca-1 expressing cells

From patent US12129491B2, “Methods and compositions relating to lung cell differentiation” (CHILDREN'S MEDICAL CENTER CORPORATION, priority 2016, dated 2024)
